For 26 molecules, IC50 results are on record in patent US11759455B2, “Substituted 1H-imidazo[4,5-b]pyridin-2(3H)-ones and their use as GLUN2B receptor modulators” (JANSSEN PHARMACEUTICA NV, priority 2016, dated 2023).

The target in the assay is T1, human GluN1/GluN2B NMDA receptors (Homo sapiens, UniProt Q13224).
T1 construct: expressed in transfected cells
Description: Cell-based calcium flux (FLIPR) assay on cloned human NR1/NR2B ion channels expressed in mammalian cells (standard and HTS buffer variants).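 Also: stable Tet-On inducible cell line, Ca2+ influx triggered by glutamate at about EC40 plus 10 µM glycine, fluorescent dye read-out over 5 min, normalized to control wells.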 On the technique in general: A change in cytosolic calcium serves as a functional read-out for many receptors and channels.

The mark [1] stands for this setting: standard assay buffer (0.5 mM MgCl2 dye loading; 137 mM NaCl, 4 mM KCl assay buffer), human GluN1/GluN2B cells, read-out: NR2B IC50 (μM) standard assay.
Where [2] appears, read: standard assay buffer (0.5 mM MgCl2 in dye loading buffer; 137 mM NaCl, 4 mM KCl in assay buffer), human GluN1/GluN2B, read-out: NR2B IC50 (μM) standard assay.
Setting [3] is: HTS assay buffer (1.5 mM MgCl2 in dye loading buffer; 150 mM NaCl, 3 mM KCl in assay buffer), human GluN1/GluN2B, read-out: NR2B IC50 (μM) HTS assay.

Molecules are shown by their SMILES. Where two headings read alike, the source gives them in different places.

T1 sequence (Q13224 27-1484, other chains not shown): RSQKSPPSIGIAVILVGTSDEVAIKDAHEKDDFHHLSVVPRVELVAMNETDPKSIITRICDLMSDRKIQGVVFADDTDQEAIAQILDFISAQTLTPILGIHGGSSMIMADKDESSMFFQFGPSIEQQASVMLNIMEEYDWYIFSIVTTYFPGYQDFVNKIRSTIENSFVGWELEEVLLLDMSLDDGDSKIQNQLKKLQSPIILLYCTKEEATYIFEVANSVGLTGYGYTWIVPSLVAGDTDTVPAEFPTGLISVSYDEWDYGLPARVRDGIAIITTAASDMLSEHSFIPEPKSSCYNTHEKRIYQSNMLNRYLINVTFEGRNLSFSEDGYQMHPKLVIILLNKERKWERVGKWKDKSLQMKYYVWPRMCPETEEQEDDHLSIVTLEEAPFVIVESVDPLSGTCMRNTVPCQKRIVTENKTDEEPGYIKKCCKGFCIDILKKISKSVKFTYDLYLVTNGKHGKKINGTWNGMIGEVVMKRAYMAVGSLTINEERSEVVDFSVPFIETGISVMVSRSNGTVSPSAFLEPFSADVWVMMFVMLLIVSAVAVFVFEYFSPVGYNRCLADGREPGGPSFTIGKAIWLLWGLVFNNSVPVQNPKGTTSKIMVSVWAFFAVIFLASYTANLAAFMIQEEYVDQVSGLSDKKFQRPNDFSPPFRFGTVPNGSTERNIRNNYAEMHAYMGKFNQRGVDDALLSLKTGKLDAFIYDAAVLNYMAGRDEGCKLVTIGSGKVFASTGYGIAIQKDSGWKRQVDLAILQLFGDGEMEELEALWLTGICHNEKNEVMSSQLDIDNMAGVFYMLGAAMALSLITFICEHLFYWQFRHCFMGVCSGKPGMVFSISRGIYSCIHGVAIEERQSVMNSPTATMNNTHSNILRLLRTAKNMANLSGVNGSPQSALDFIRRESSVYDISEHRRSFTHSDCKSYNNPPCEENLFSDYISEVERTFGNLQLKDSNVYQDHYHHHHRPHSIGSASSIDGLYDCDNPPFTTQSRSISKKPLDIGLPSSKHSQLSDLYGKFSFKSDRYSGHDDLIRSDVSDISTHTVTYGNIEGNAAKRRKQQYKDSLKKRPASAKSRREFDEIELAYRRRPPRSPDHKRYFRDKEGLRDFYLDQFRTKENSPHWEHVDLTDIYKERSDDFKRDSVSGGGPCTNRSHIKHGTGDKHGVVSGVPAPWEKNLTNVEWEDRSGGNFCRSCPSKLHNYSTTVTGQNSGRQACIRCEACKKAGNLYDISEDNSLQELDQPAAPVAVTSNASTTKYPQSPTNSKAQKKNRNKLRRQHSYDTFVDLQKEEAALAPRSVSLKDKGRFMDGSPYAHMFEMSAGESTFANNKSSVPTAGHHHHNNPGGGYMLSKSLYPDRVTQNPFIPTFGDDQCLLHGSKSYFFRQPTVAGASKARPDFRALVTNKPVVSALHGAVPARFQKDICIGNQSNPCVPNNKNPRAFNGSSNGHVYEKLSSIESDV

`CN(C)C(=O)Cn1c(=O)n(C)c2ncc(-c3ccc(Cl)s3)cc21` [Example 9, 2-[6-(5-Chloro-2-thienyl)-3-methyl-2-oxo-imidazo[4,5-b]pyridin-1-yl]-N,N-dimethyl-acetamide]: the IC50 (in general, the concentration that gives 50% inhibition) under setting [1] came out at 0.005 µM. Consider `Cn1c(=O)n(Cc2cncc(F)c2)c2cc(-c3cccc(OC(F)(F)F)c3)cnc21` [Example 345, 1-[(5-Fluoro-3-pyridyl)methyl]-3-methyl-6-[3-(trifluoromethoxy)phenyl]imidazo[4,5-b]pyridin-2-one], for which the IC50 under setting [2] is 0.778 µM. Still for that read-out and setting: next, `Cn1c(=O)n(CC(=O)N2CC(F)C2)c2cc(-c3ccc(F)c(C(F)(F)F)c3)cnc21` [Example 407, 1-[2-(3-Fluoroazetidin-1-yl)-2-oxo-ethyl]-6-[4-fluoro-3-(trifluoromethyl)phenyl]-3-methyl-imidazo[4,5-b]pyridin-2-one]: 0.031 µM. Same read-out and setting: with `Cn1c(=O)n(CC(=O)N2CC(F)C2)c2cc(-c3ccc(F)c(C(F)F)c3)cnc21` [Example 585, 6-[3-(Difluoromethyl)-4-fluoro-phenyl]-1-[2-(3-fluoroazetidin-1-yl)-2-oxo-ethyl]-3-methyl-imidazo[4,5-b]pyridin-2-one] the figure was 0.018 µM; with `Cc1cccc(-c2cnc3c(c2)n(CC(=O)N2CC(F)C2)c(=O)n3C)c1` [Example 404, 1-[2-(3-Fluoroazetidin-1-yl)-2-oxo-ethyl]-3-methyl-6-(m-tolyl)imidazo[4,5-b]pyridin-2-one], 0.05 µM. As to `Cn1c(=O)n(Cc2ccccn2)c2cc(-c3cccc(F)c3)cnc21` [Example 53, 6-(3-Fluorophenyl)-3-methyl-1-(2-pyridylmethyl)imidazo[4,5-b]pyridin-2-one], the IC50 under setting [1] came out at 1.4 µM. Same read-out and setting: with `Cc1ccc(C(F)(F)F)cc1-c1cnc2[nH]c(=O)n(CCN3CC(F)C3)c2c1` [Example 185, 1-[2-(3-Fluoroazetidin-1-yl)ethyl]-6-[2-methyl-5-(trifluoromethyl)phenyl]-3H-imidazo[4,5-b]pyridin-2-one] the figure was 2.13 µM. On the same count and under the same terms, next, `Cc1ncc(Cn2c(=O)[nH]c3ncc(-c4cccc(C(F)(F)F)c4)cc32)cn1` [Example 231, 1-[(2-Methylpyrimidin-5-yl)methyl]-6-[3-(trifluoromethyl)phenyl]-3H-imidazo[4,5-b]pyridin-2-one]: 0.094 µM. On the same count and under the same terms, next, `Cc1ccncc1Cn1c(=O)[nH]c2ncc(-c3ccc(F)c(C(F)(F)F)c3)cc21` [Example 314, 6-[4-Fluoro-3-(trifluoromethyl)phenyl]-1-[(4-methyl-3-pyridyl)methyl]-3H-imidazo[4,5-b]pyridin-2-one]: 0.049 µM. As for `O=C(Cn1c(=O)n(CF)c2ncc(-c3ccc(C(F)(F)F)s3)cc21)N1CCC1` [Example 534, 1-[2-(Azetidin-1-yl)-2-oxo-ethyl]-3-(fluoromethyl)-6-[5-(trifluoromethyl)-2-thienyl]imidazo[4,5-b]pyridin-2-one], the IC50 under setting [2] was found to be 0.036 µM.

`Cn1c(=O)n(Cc2cncc(Cl)c2)c2cc(-c3cccc(F)c3F)cnc21` [Example 375, 1-[(5-Chloro-3-pyridyl)methyl]-6-(2,3-difluorophenyl)-3-methyl-imidazo[4,5-b]pyridin-2-one]: the IC50 under setting [2] was determined as 1.51 µM. As to `Cc1c(F)ccc(-c2cnc3[nH]c(=O)n(Cc4ccccn4)c3c2)c1F` [Example 280, 6-(2,4-Difluoro-3-methyl-phenyl)-1-(2-pyridylmethyl)-3H-imidazo[4,5-b]pyridin-2-one], the IC50 under setting [1] was determined as 0.576 µM. The same measure, in the same setting: next, `Cn1cc(Cn2c(=O)[nH]c3ncc(-c4ccc(F)cc4)cc32)cn1` [Example 15, 6-(4-Fluorophenyl)-1-[(1-methylpyrazol-4-yl)methyl]-3H-imidazo[4,5-b]pyridin-2-one]: 0.204 µM. As for `Cn1c(=O)n(CC(=O)N2CC(F)C2)c2cc(-c3ccc(F)c(F)c3)cnc21` [Example 403, 6-(3,4-Difluorophenyl)-1-[2-(3-fluoroazetidin-1-yl)-2-oxo-ethyl]-3-methyl-imidazo[4,5-b]pyridin-2-one], under setting [2], the IC50 stood at 0.042 µM. As for `Cn1c(=O)n(Cc2csnn2)c2cc(-c3ccc(C(F)(F)F)s3)cnc21` [Example 568, 3-Methyl-1-(thiadiazol-4-ylmethyl)-6-[5-(trifluoromethyl)-2-thienyl]imidazo[4,5-b]pyridin-2-one], the IC50 under setting [2] stood at 0.305 µM. Take `COc1cc(F)ccc1-c1cnc2[nH]c(=O)n(CC(=O)NC3CC3)c2c1` [Example 452, N-Cyclopropyl-2-[6-(4-fluoro-2-methoxy-phenyl)-2-oxo-3H-imidazo[4,5-b]pyridin-1-yl]acetamide]: under setting [3], the IC50 turned out to be 0.071 µM. Take `Cn1c(=O)n(CC(=O)N2CC(F)C2)c2cc(-c3ccc(C(F)(F)F)s3)cnc21` [Example 327, 1-[2-(3-Fluoroazetidin-1-yl)-2-oxo-ethyl]-3-methyl-6-[5-(trifluoromethyl)-2-thienyl]imidazo[4,5-b]pyridin-2-one]: under setting [2], the IC50 turned out to be 0.071 µM. In the case of `N#Cc1cccc(-c2cnc3[nH]c(=O)n(Cc4ccccc4C#N)c3c2)c1` [Example 486, 2-[[6-(3-Cyanophenyl)-2-oxo-3H-imidazo[4,5-b]pyridin-1-yl]methyl]benzonitrile], the IC50 under setting [3] is 3.84 µM. With `CCOc1ccccc1-c1cnc2[nH]c(=O)n(Cc3ccccc3C#N)c2c1` [Example 484, 2-[[6-(2-Ethoxyphenyl)-2-oxo-3H-imidazo[4,5-b]pyridin-1-yl]methyl]benzonitrile], the IC50 under setting [2] was determined as 1.39 µM. On to `Cn1c(=O)n(CC(=O)N2CC(F)C2)c2cc(-c3cnc(C(F)(F)F)s3)cnc21` [Example 116, 1-[2-(3-Fluoroazetidin-1-yl)-2-oxo-ethyl]-3-methyl-6-[2-(trifluoromethyl)thiazol-5-yl]imidazo[4,5-b]pyridin-2-one], for which the IC50 under setting [1] came to 0.705 µM. `COCCn1c(=O)[nH]c2ncc(-c3ccc(F)cc3C)cc21` [Example 2, 6-(4-Fluoro-2-methyl-phenyl)-1-(2-methoxyethyl)-3H-imidazo[4,5-b]pyridin-2-one]: the IC50 (HTS assay buffer (1.5 mM MgCl2 dye loading; 150 mM NaCl, 3 mM KCl assay buffer), human GluN1/GluN2B cells, read-out: NR2B IC50 (μM) HTS assay) turned out to be 2.06 µM. As to `Cn1c(=O)n(CC(=O)N2CCC(F)(F)C2)c2cc(-c3cccc(C(F)(F)F)c3)cnc21` [Example 196, 1-[2-(3,3-Difluoropyrrolidin-1-yl)-2-oxo-ethyl]-3-methyl-6-[3-(trifluoromethyl)phenyl]imidazo[4,5-b]pyridin-2-one], the IC50 under setting [1] turned out to be 0.182 µM. Same read-out and setting: with `Cc1ccccc1-c1cnc2[nH]c(=O)n(CCN3CC(F)C3)c2c1` [Example 186, 1-[2-(3-Fluoroazetidin-1-yl)ethyl]-6-(o-tolyl)-3H-imidazo[4,5-b]pyridin-2-one] the figure was 1.34 µM.

For `Cc1c(F)ccc(-c2cnc3c(c2)n(Cc2cnccn2)c(=O)n3C)c1F` [Example 139, 6-(2,4-Difluoro-3-methyl-phenyl)-3-methyl-1-(pyrazin-2-ylmethyl)imidazo[4,5-b]pyridin-2-one], the IC50 under setting [1] is 0.084 µM. The same measure, in the same setting: with `Cc1ccncc1Cn1c(=O)[nH]c2ncc(-c3ccc(F)c(C)c3F)cc21` [Example 278, 6-(2,4-Difluoro-3-methyl-phenyl)-1-[(4-methyl-3-pyridyl)methyl]-3H-imidazo[4,5-b]pyridin-2-one] the figure was 0.111 µM. As for `O=C(Cn1c(=O)n(CCF)c2ncc(-c3ccc(C(F)(F)F)s3)cc21)N1CCC1` [Example 535, 1-[2-(Azetidin-1-yl)-2-oxo-ethyl]-3-(2-fluoroethyl)-6-[5-(trifluoromethyl)-2-thienyl]imidazo[4,5-b]pyridin-2-one], the IC50 under setting [2] was found to be 0.106 µM.
